# Source: a flash point compilation (Sun et al. 2020)
row,flash point,SMILES
1,68 °C,CCCCCCCC(C)=O [2-nonanone]
2,72 °C,CCCCCCC(C)O (stereo unspecified) [2-octanol]
3,78 °C,CCCCCC1CCCC1=O (stereo unspecified) [2-pentylcyclopentanone]
4,59 °C,CCC(C)(C)c1ccccc1 [2-phenyl-2-methylbutane]
5,15 °C,CCCc1ccco1 [2-propylfuran]
6,93 °C,CCCc1ccccc1O [2-propylphenol]
7,107 °C,CCC(C)c1ccccc1O (stereo unspecified) [2-sec-butylphenol]
8,89 °C,CCCCCCCCCC(C)=O [2-undecanone]
9,31 °C,"CCC(C)(C)C(C)(C)CC [3,3,4,4-tetramethylhexane]"
10,31 °C,"CCC(C)CC(C)(C)CC (stereo unspecified) [3,3,5-trimethylheptane]"
11,21 °C,"CCC(CC)(CC)CC [3,3-diethylpentane]"
12,-34 °C,"C#CC(C)(C)C [3,3-dimethyl-1-butyne]"
13,88 °C,"CC(C)(C)CC(=O)O [3,3-dimethylbutanoicacid]"
14,-1 °C,"CCCC(C)(C)CC [3,3-dimethylhexane]"
15,41 °C,"CCCCCC(C)(C)CC [3,3-dimethyloctane]"
16,-19 °C,"CCC(C)(C)CC [3,3-dimethylpentane]"
17,31 °C,"CCC(C)C(C)C(C)CC (stereo unspecified) [3,4,5-trimethylheptane]"
18,6 °C,"CCC(C)C(C)CC (stereo unspecified) [3,4-dimethylhexane]"
19,15 °C,"CCC(C)CC(C)CC (stereo unspecified) [3,5-dimethylheptane]"
20,41 °C,"CCCC(C)CC(C)CC (stereo unspecified) [3,5-dimethyloctane]"
21,43 °C,SCCCCl [3-chloro-1-propanethiol]
22,50 °C,Cc1cccc(Cl)c1 [3-chlorotoluene]
23,99 °C,CCCCCCCC(O)CC (stereo unspecified) [3-decanol]

row,flash point,SMILES
1,52 °C,CCC#CCCCCCC [3-decyne]
2,1 °C,C=CC(CC)CCC (stereo unspecified) [3-ethyl-1-hexene]
3,-17 °C,C=CC(CC)CC [3-ethyl-1-pentene]
4,38 °C,"CCCC(CC)C(C)(C)C (stereo unspecified) [3-ethyl-2,2-dimethylhexane]"
5,31 °C,"CCC(C)(C(C)C)C(C)C [3-ethyl-2,3,4-trimethylpentane]"
6,15 °C,"CCC(C)(CC)C(C)C [3-ethyl-2,3-dimethylpentane]"
7,3 °C,CCC(C)(CC)CC [3-ethyl-3-methylpentane]
8,34 °C,CCC(S)(CC)CC [3-ethyl-3-pentanethiol]
9,15 °C,CCC(C)C(CC)CC (stereo unspecified) [3-ethyl-4-methylhexane]
10,85 °C,CCc1cccc(N)c1 [3-ethylaniline]
11,46 °C,CCC1CCC(=O)C1 (stereo unspecified) [3-ethylcyclopentanone]
12,-12 °C,CCC(CC)CC [3-ethylpentane]
13,55 °C,CCCCC(O)CC (stereo unspecified) [3-heptanol]
14,5 °C,CCC#CCCC [3-heptyne]
15,30 °C,CCCC(S)CC (stereo unspecified) [3-hexanethiol]
16,45 °C,CCCC(O)CC (stereo unspecified) [3-hexanol]
17,23 °C,CCCC(=O)CC [3-hexanone]
18,43 °C,CC(C)CCO [3-methyl-1-butanol]
19,58 °C,CCC(C)CCO (stereo unspecified) [3-methyl-1-pentanol]
20,-1 °C,CC(=O)C(C)C [3-methyl-2-butanone]
21,41 °C,CCC(C)C(C)O (stereo unspecified) [3-methyl-2-pentanol]
22,12 °C,CCC(C)C(C)=O (stereo unspecified) [3-methyl-2-pentanone]
23,52 °C,COc1cccc(C)c1 [3-methylanisole]

row,flash point,SMILES
1,-3 °C,CC1C=CCCC1 (stereo unspecified) [3-methylcyclohexene]
2,34 °C,CC1CCC(=O)C1 (stereo unspecified) [3-methylcyclopentanone]
3,-22 °C,Cc1ccoc1 [3-methylfuran]
4,41 °C,CCCCCCC(C)CC (stereo unspecified) [3-methylnonane]
5,24 °C,CCCCCC(C)CC (stereo unspecified) [3-methyloctane]
6,-32 °C,CCC(C)CC [3-methylpentane]
7,63 °C,CCCCCCC(=O)CC [3-nonanone]
8,51 °C,CCCCCC(=O)CC [3-octanone]
9,2 °C,CCC(N)CC [3-pentanamine]
10,33 °C,CCC(O)CC [3-pentanol]
11,7 °C,CCC(=O)CC [3-pentanone]
12,36 °C,Cc1cccnc1 [3-picoline]
13,101 °C,CC(C)(C)c1cccc(N)c1 [3-tert-butylaniline]
14,64 °C,CC(C)(C)C1CCC(=O)C1 (stereo unspecified) [3-tert-butylcyclopentanone]
15,-10 °C,"CC#CC(C)(C)C [4,4-dimethyl-2-pentyne]"
16,15 °C,"CCCC(C)(C)CCC [4,4-dimethylheptane]"
17,102 °C,CCCCc1ccc(N)cc1 [4-butylaniline]
18,46 °C,Cc1ccc(Cl)cc1 [4-chlorotoluene]
19,58 °C,"CCc1ccc(C)c(C)c1 [4-ethyl-1,2-dimethylbenzene]"
20,41 °C,CCCC(CC)C(C)CC (stereo unspecified) [4-ethyl-3-methylheptane]
21,63 °C,CCC1CCC(=O)CC1 [4-ethylcyclohexanone]
22,41 °C,CCCCC(CC)CCC (stereo unspecified) [4-ethyloctane]
23,12 °C,Cc1ccc(F)cc1 [4-fluorotoluene]

row,flash point,SMILES
1,90 °C,Cc1ccc(I)cc1 [4-iodotoluene]
2,65 °C,CC(C)C1CCC(=O)CC1 [4-isopropylcyclohexanone]
3,-32 °C,C=CCC(C)C [4-methyl-1-pentene]
4,41 °C,CC(C)CC(C)O (stereo unspecified) [4-methyl-2-pentanol]
5,53 °C,COc1ccc(C)cc1 [4-methylanisole]
6,-1 °C,CC1CC=CCC1 (stereo unspecified) [4-methylcyclohexene]
7,5 °C,CCCC(C)CCC [4-methylheptane]
8,45 °C,CCCCC(=O)CCC [4-octanone]
9,18 °C,CCCC#CCCC [4-octyne]
10,43 °C,C=CCCCO [4-penten-1-ol]
11,96 °C,CC=Cc1ccc(OC)cc1 [4-propenylanisole]
12,103 °C,CCCc1ccc(N)cc1 [4-propylaniline]
13,82 °C,CCCc1ccc(OC)cc1 [4-propylanisole]
14,35 °C,CCCC(CCC)CCC [4-propylheptane]
15,106 °C,CCCc1ccc(O)cc1 [4-propylphenol]
16,108 °C,CCC(C)c1ccc(N)cc1 (stereo unspecified) [4-sec-butylaniline]
17,102 °C,CC(C)(C)c1ccc(N)cc1 [4-tert-butylaniline]
18,66 °C,CCCC#CCCCCCC [4-undecyne]
19,29 °C,CC=C1CC2C=CC1C2 (stereo unspecified) [5-ethylidene-2-norbornene]
20,47 °C,C=CCCCCO [5-hexen-1-ol]
21,-7 °C,C#CCCC(C)C [5-methyl-1-hexyne]
22,36 °C,CC(=O)CCC(C)C [5-methyl-2-hexanone]
23,71 °C,CC1CCCC(=O)CCC1 [5-methylcyclooctanone]

row,flash point,SMILES
1,66 °C,CCCCC#CCCCCC [5-undecyne]
2,86 °C,CCC#CCCCCCCCl [10-chloro-3-decyne]
3,43 °C,NCC1CCCCC1 [(aminomethyl)cyclohexane]
4,76 °C,"CCN(CC)C(C)=O [N,N-diethylacetamide]"
5,57 °C,"CN(C)C=O [N,N-dimethylformamide]"
6,-36 °C,CCN(C)C [N-ethyldimethylamine]
7,86 °C,CCNC=O [N-ethylformamide]
8,2 °C,CCCCNC [N-methylbutylamine]
9,-20 °C,CNC(C)C [N-methylisopropylamine]
10,14 °C,CN1CCOCC1 [N-methylmorpholine]
11,93 °C,CCC(C)Nc1ccccc1 (stereo unspecified) [N-sec-butylaniline]
12,63 °C,C=CN(C)C(C)=O [N-vinyl-N-methylacetamide]
13,40 °C,CC(=O)O [aceticacid]
14,2 °C,CC#N [acetonitrile]
15,77 °C,CC(=O)c1ccccc1 [acetophenone]
16,42 °C,C=CCOC(=O)CCC [allylbutanoate]
17,63 °C,C=CCOc1ccccc1 [allylphenylether]
18,29 °C,C=CCSCCC [allylpropylsulfide]
19,70 °C,N#Cc1ccccc1 [benzonitrile]
20,65 °C,NCc1ccccc1 [benzylamine]
21,53 °C,COCc1ccccc1 [benzylmethylether]
22,73 °C,CSCc1ccccc1 [benzylmethylsulfide]

row,SMILES,flash point
1,CC(C)[N+](=O)[O-] [2-nitropropane],28 °C
2,"CC1(C)CC(=O)CC(C)(C)C1 [3,3,5,5-tetramethylcyclohexanone]",73 °C
3,C=CCC#N [3-butenenitrile],21 °C
4,CC(C)CC#N [3-methylbutanenitrile],28 °C
5,C=Cc1ccc(F)cc1 [4-fluorostyrene],35 °C
6,C=CC1CC=CCC1 (stereo unspecified) [4-vinyl-1-cyclohexene],16 °C
7,CC(C)=O [acetone],-20 °C
8,C=CCN [allylamine],-28 °C
9,Nc1ccccc1 [aniline],70 °C
10,O=Cc1ccccc1 [benzaldehyde],62 °C
11,Sc1ccccc1 [benzenethiol],51 °C
12,ClCc1ccccc1 [benzylchloride],60 °C
